Experimental data: ChEMBL document CHEMBL1132922, “Corticotropin releasing factor (CRF) receptor modulators: progress and opportunities for new therapeutic agents” (J Med Chem, 2000)
pEC50, pIC50, pKi: −log10 of the molar value. Blank lines part the entries; values can stand above or below the compound they belong to.

Key:
[1] = Oral bioavailability is reported, after administering 1 mg/kg (intravenously and orally ) to dogs; assay type: ADME, organism-based, Canis lupus familiaris; conditions: dog, in vivo
[2] = target: T1, Corticotropin-releasing factor receptor 1 (Homo sapiens, UniProt P34998); assay: Compound was tested for the binding affinity to human corticotropin releasing factor receptor
T1 sequence (P34998 whole entry): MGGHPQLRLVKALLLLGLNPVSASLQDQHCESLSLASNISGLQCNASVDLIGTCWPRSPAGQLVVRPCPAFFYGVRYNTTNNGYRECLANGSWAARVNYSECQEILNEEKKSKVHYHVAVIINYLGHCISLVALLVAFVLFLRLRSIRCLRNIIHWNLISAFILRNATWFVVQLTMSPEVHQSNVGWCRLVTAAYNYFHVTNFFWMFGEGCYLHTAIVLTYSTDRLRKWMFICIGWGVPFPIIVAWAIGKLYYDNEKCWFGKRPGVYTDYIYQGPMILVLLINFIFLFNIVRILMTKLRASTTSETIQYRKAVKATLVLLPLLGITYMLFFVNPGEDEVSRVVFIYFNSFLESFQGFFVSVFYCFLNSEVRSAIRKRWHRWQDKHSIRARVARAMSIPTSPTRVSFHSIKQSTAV

[3] = target: T1, Corticotropin-releasing factor receptor 1; assay: Inhibition of corticotropin releasing factor receptor mediated increase in cAMP level using HEK293 cells expressing h-CRF1 receptor; assay type: cell-based
[4] = target: T1, Corticotropin-releasing factor receptor 1; assay: Effective concentration to stimulate the human corticotropin releasing factor receptor using agonist-stimulated adenylate cyclase assay; assay type: functional
[5] = Compound was tested for the binding affinity to mouse Corticotropin releasing factor receptor 2 beta
[6] = target: T2, Corticotropin releasing factor receptor (Rattus norvegicus, UniProt P47866+P35353); assay: Compound was tested for the binding affinity to rat ccorticotropin releasing factor receptor; assay type: protein assay
Rattus norvegicus [7] = organism: Rattus norvegicus; assay: Percent control value is reported, after studying ability to inhibit CRF-stimulated release of ACTH in rats; assay type: functional; design: scale not given: the % may be the effect or the level left
[8] = (§1) oral pharmacokinetic parameter, Half-life period was reported in rats; assay type: ADME, organism-based; conditions: rat, in vivo
[9] = oral pharmacokinetic parameter, Oral bioavailability was reported in dogs; assay type: ADME, organism-based, Canis lupus familiaris; conditions: dog, in vivo
[10] = oral pharmacokinetic parameter, Oral bioavailability was reported in rats; assay type: ADME, organism-based; conditions: rat, in vivo
[11] = oral pharmacokinetic parameter, Half-life period was reported in dogs; assay type: ADME, organism-based, Canis lupus familiaris; conditions: dog, in vivo
[12] = oral pharmacokinetic parameter, Maximum concentration was reported in dogs; assay type: ADME, organism-based, Canis lupus familiaris; design: route oral; conditions: dog, in vivo
[13] = as §1; assay type: ADME, organism-based; conditions: rat, in vivo; remark: listed apart in the source
[14] = target: T1, Corticotropin-releasing factor receptor 1; assay: Inhibition of corticotropin releasing factor receptor mediated increase in adenylate cyclase activity was evaluated
[15] = target: T2, Corticotropin releasing factor receptor; assay: Effective concentration to inhibit CRF-mediated increase in adenylate cyclase; assay type: protein assay
[16] = target: T2, Corticotropin releasing factor receptor; assay: (§2) Compound was tested for the binding affinity to rat corticotropin releasing factor receptor; assay type: protein assay
[17] = target: T2, Corticotropin releasing factor receptor; assay: as §2; assay type: protein assay; remark: listed apart in the source
Rattus norvegicus [18] = organism: Rattus norvegicus; assay: Effective concentration to inhibit adenocorticotropic hormone (ACTH) release from primary cultures of rat pituitary cells.; assay type: functional, cell-based; conditions: Pituitary gland cell
[19] = Pharmacokinetic profile (5 mg/kg) in rat for Oral bioavailability; assay type: ADME, organism-based; conditions: in vivo
[20] = Compound was tested for the max. conc. when administered perorally(po) 30 mg/kg; assay type: ADME, organism-based; design: dose 30 mg/kg, route oral; conditions: in vivo
[21] = Compound was tested for the max. conc. when administered intraperitoneally (ip) 30 mg/kg; assay type: ADME, organism-based; design: dose 30 mg/kg, route intraperitoneal; conditions: in vivo
[22] = Compound was tested for bioavailability when administered intraperitoneally; assay type: ADME, organism-based; conditions: eutheria, in vivo, ip
[23] = Compound was tested for bioavailability when administered perorally; assay type: ADME, organism-based; conditions: eutheria, in vivo, po
[24] = target: T3, Corticotropin-releasing factor receptor 2 (Homo sapiens, UniProt Q13324); assay: Compound was tested for the binding affinity to human corticotropin releasing factor receptor (hCRF2)
T3 sequence (Q13324 whole entry): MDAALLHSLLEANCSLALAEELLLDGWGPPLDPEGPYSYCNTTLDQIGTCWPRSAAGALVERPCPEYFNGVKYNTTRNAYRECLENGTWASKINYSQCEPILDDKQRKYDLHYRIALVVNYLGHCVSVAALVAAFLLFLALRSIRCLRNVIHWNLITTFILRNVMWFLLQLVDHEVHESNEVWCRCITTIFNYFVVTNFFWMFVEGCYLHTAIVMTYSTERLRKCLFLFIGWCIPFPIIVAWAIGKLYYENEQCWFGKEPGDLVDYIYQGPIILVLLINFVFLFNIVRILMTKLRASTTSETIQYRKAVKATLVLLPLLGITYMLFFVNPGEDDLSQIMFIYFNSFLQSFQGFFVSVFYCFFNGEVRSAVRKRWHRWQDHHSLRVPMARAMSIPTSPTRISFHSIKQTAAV

[25] = target: T1, Corticotropin-releasing factor receptor 1; assay: Compound was tested for the binding affinity to human corticotropin releasing factor 1 (hCRF1) receptors.
[26] = target: T1, Corticotropin-releasing factor receptor 1; assay: Antagonist potency in hCRF1 stimulated adenylate cyclase assay; assay type: functional
Rattus norvegicus [27] = assay: Dose (ip) that completely reverses the r/h-CRF-enhanced acoustic startle of rats; assay type: functional
Rattus norvegicus [28] = organism: Rattus norvegicus; assay: 50% inhibitory concentration to antagonize ACTH secretion; assay type: functional; conditions: read-out: ID50 (the source's name)
[29] = Half life period when administered 1 mg/kg intravenously in rat; assay type: ADME, organism-based; design: dose 1 mg/kg, route intravenous; conditions: in vivo, iv
[30] = Plasma administered 1 mg/kg intravenously in rat.; assay type: ADME, organism-based; design: dose 1 mg/kg, route intravenous; conditions: iv
[31] = target: T2, Corticotropin releasing factor receptor; assay: Compound was tested for the binding affinity to rat Corticotropin releasing factor (rCRF) receptors; assay type: protein assay

bioavailability [1]: 59% | pKi [2]: 8.48 | pIC50 [3]: 7.12
SMILES: COCC(COC)n1nnc2c(Nc3c(C)cc(C)cc3Cl)nc(C)cc21.CS(=O)(=O)O

pEC50 [4]: 5.42
SMILES: CC[C@H](C)[C@H](NC(=O)[C@@H](NC(=O)[C@H](CC(=O)O)NC(=O)[C@H](CC(C)C)NC(=O)[C@H](CC(C)C)NC(=O)[C@H](CC(C)C)NC(=O)[C@H](CCCNC(=N)N)NC(=O)[C@H](CC(N)=O)NC(=O)[C@H](CC(N)=O)NC(=O)[C@H](C)NC(=O)[C@H](C)NC(=O)[C@H](CCC(N)=O)NC(=O)[C@H](CCC(N)=O)NC(=O)[C@H](CCCCN)NC(=O)[C@H](CCC(=O)O)NC(=O)[C@H](CCCCN)NC(=O)[C@H](CCC(=O)O)NC(=O)[C@H](CCC(N)=O)NC(=O)[C@H](CCCCN)NC(=O)[C@H](CCC(=O)O)NC(=O)[C@@H](NC(=O)[C@H](CCC(=O)O)NC(=O)[C@@H](NC(=O)[C@H](CCSC)NC(=O)[C@H](CCCCN)NC(=O)[C@H](CCCNC(=N)N)NC(=O)[C@H](CC(C)C)NC(=O)[C@H](CC(C)C)NC(=O)[C@H](Cc1c[nH]cn1)NC(=O)[C@H](N)Cc1ccccc1)[C@@H](C)CC)[C@@H](C)CC)[C@@H](C)O)C(N)=O

SMILES: CO[C@@]12C(COC(N)=O)C3=C(C(=O)C(C)=C(NCCc4ccco4)C3=O)N1CC1NC12 (some centres not stated)
pKi [5]: 7.70 | Ki [6]: 110 nM | Control (Rattus norvegicus [7]): 50%

half-life [8]: 16.5 h | bioavailability [9]: 50% | F [10]: 36.7% | half-life [11]: 33 h | Cmax [12]: 240 nM | half-life [13]: 16.5 h | pIC50 [14]: 7.09 | pKi [2]: 8.74
SMILES: COCC(COC)Nc1nc(C)nc2c(-c3ccc(Cl)cc3Cl)c(C)nn12

EC50 [15]: 150 nM | Ki [16]: > 10000 nM | Ki [17]: 2 nM | pEC50 (Rattus norvegicus [18]): 7.15
SMILES: CCCN(CC1CC1)c1nc(C)nc(Nc2c(Cl)cc(Cl)cc2Cl)c1Cl

bioavailability [19]: 20%
SMILES: CCN(c1nc(C)nc(N2CCOCC2)n1)c1c(Br)cc(OC)cc1OC.CS(=O)(=O)O

Cmax [20]: 366 nM | Cmax [21]: 1880 nM | bioavailability [22]: 26% | bioavailability [23]: 4%
SMILES: CCN(c1nc(C)cc(C)n1)c1c(Br)cc(OC)cc1OC

pKi [24]: < 5.00 | pKi [25]: 8.55 | pEC50 [26]: 6.85
SMILES: CCCN(CCC)c1cc(C)nc2c(-c3ccc(OC)cc3OC)c(C)nn12

SMILES: CCCCN(CC)c1nc(C)nc2c1c(C)cn2-c1c(C)cc(C)cc1C.Cl
Dose (Rattus norvegicus [27]): 17.8 mg/kg | ED50 (Rattus norvegicus [28]): 13 mg/kg

half-life [29]: 7.6 h | clearance [30]: 50 mL/min/kg
SMILES: COCCN(CCOC)c1nc(C)nc2c1nnn2-c1ccc(C(C)C)cc1Br

Ki [31]: 28 nM
SMILES: Cc1cc(N2CCOCC2)c2ccn(-c3ccc(C(C)C)cc3Br)c2n1
